Source: patent US10954228B2 (NATIONAL INSTITUTES OF HEALTH, UNITED STATES DEPARTMENT OF …, priority 2016, dated 2021)

Assays:
[1] = test system: MiaPaCa2 cells; assay: cell-based HT lactate assay by colorimetric/fluorometric detection (cellular inhibition of lactate production); conditions: Homo sapiens, MIA PaCa-2, assay of Example 6
Experimental: This example describes a cell-based metabolite assay by colorimetric/fluorometric detection employed in the characterization of a compound of formula (I) in an embodiment of the invention.
Cell-based HT Lactate assay is a miniaturized Biovision Lactate Colorimetric/Fluorometric Assay Kit (Cat #K607-100). The assay is roughly a 3.5 hour assay run in a 1536 plate format. Cell number optimization should be run for each cell line to achieve an optimal number in which lactate production equals roughly 90% of the standard curve range. Cell number per well optimization has been performed with the following cell lines: MiaPaCa2—500 cells/well, SNU398—500 cells/well, and P493—500 cells/well.

[2] = target: Human LDHA (Homo sapiens (Human), UniProt P00338); assay: human LDHA primary biochemical assay; conditions: biochemical LDHA inhibitory activity, assay of Example 1; activity level classes defined in nM
Summary of the method: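 Human LDHA at 2 nM with 0.06 mM NADH and 0.2 mM sodium pyruvate in 200 mM Tris HCl pH 7.4, 100 μM EDTA, 0.01% TWEEN-20 (final). NADH consumption coupled to resazurin/diaphorase (0.037 mM; 0.133 mg/mL); inhibition read by fluorescence.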

Compound | IC50 [1] [µM] | IC50 [2] [nM]
NS(=O)(=O)c1ccc(Cc2c(-c3ccc(F)c(-c4ccc(Cl)cc4)c3)nn(-c3nc(C(=O)O)cs3)c2CC2CC2)cc1F [Compound 139, 2-(3-(4′-chloro-6-fluoro-[1,1′-biphenyl]-3-yl)-5-(cyclopropylmethyl)-4-(3-fluoro-4-sulfamoylbenzyl)-1H-pyrazol-1-yl)thiazole-4-carboxylic acid] | < 1 | < 100
NS(=O)(=O)c1ccc(Cc2c(-c3ccc(F)c(-c4ccc(C(F)(F)F)cc4)c3)nn(-c3nc(C(=O)O)cs3)c2CC2CC2)cc1F [Compound 138, 2-(5-(cyclopropylmethyl)-3-(6-fluoro-4′-(trifluoromethyl)-[1,1′-biphenyl]-3-yl)-4-(3-fluoro-4-sulfamoylbenzyl)-1H-pyrazol-1-yl)thiazole-4-carboxylic acid] | < 1 | < 100
Cc1ncc(C#Cc2cc(-c3nn(-c4nc(C(=O)O)cs4)c(CC4CC4)c3Cc3ccc(S(N)(=O)=O)c(F)c3)ccc2F)s1 [Compound 111, 2-(5-(cyclopropylmethyl)-3-(4-fluoro-3-((2-methylthiazol-5-yl)ethynyl)phenyl)-4-(3-fluoro-4-sulfamoylbenzyl)-1H-pyrazol-1-yl)thiazole-4-carboxylic acid] | < 1 | < 100
CC(C)c1ccc(-c2cc(-c3nn(-c4nc(C(=O)O)cs4)c(CC4CC4)c3Cc3ccc(S(N)(=O)=O)c(F)c3)ccc2F)cc1 [Compound 142, 2-(5-(cyclopropylmethyl)-3-(6-fluoro-4′-isopropyl-[1,1′-biphenyl]-3-yl)-4-(3-fluoro-4-sulfamoylbenzyl)-1H-pyrazol-1-yl)thiazole-4-carboxylic acid] | < 1 | –
Cc1ccc(-c2cccc(-c3nn(-c4nc(C(=O)O)cs4)c(CC4CC4)c3Cc3ccc(S(N)(=O)=O)c(F)c3)c2)cc1 [Compound 198, 2-(5-(cyclopropylmethyl)-4-(3-fluoro-4-sulfamoylbenzyl)-3-(4′-methyl-[1,1′-biphenyl]-3-yl)-1H-pyrazol-1-yl)thiazole-4-carboxylic acid] | – | < 100
CC(C)N1CC2(CN(c3cc(-c4nn(-c5nc(C(=O)O)cs5)c(CC5CC5)c4Cc4ccc(S(N)(=O)=O)c(F)c4)ccc3F)C2)C1 [Compound 158, 2-(5-(cyclopropylmethyl)-3-(4-fluoro-3-(6-isopropyl-2,6-diazaspiro[3.3]heptan-2-yl)phenyl)-4-(3-fluoro-4-sulfamoylbenzyl)-1H-pyrazol-1-yl)thiazole-4-carboxylic acid] | – | < 100
Cc1ccc(C#Cc2cccc(-c3nn(-c4nc(C(=O)O)cs4)c(CCC4CC4)c3Cc3ccc(S(N)(=O)=O)c(F)c3)c2)o1 [Compound 232, 2-(5-(2-cyclopropylethyl)-4-(3-fluoro-4-sulfamoylbenzyl)-3-(3-((5-methylfuran-2-yl)ethynyl)phenyl)-1H-pyrazol-1-yl)thiazole-4-carboxylic acid] | – | < 100
NS(=O)(=O)c1ccc(Cc2c(-c3ccc(F)c(-c4nc5ccccc5[nH]4)c3)nn(-c3nc(C(=O)O)cs3)c2CC2CC2)cc1F [Compound 160, 2-(3-(3-(1H-benzo[d]imidazol-2-yl)-4-fluorophenyl)-5-(cyclopropylmethyl)-4-(3-fluoro-4-sulfamoylbenzyl)-1H-pyrazol-1-yl)thiazole-4-carboxylic acid] | – | < 100
NS(=O)(=O)c1ccc(Cc2c(-c3cccc(C#Cc4ccc(C5CCC5)s4)c3)nn(-c3nc(C(=O)O)cs3)c2CC2CC2)cc1F [Compound 245, 2-(3-(3-((5-cyclobutylthiophen-2-yl)ethynyl)phenyl)-5-(cyclopropylmethyl)-4-(3-fluoro-4-sulfamoylbenzyl)-1H-pyrazol-1-yl)thiazole-4-carboxylic acid] | – | 100 to 1000
Cc1ncc(C#Cc2cccc(-c3nn(-c4nc(C(=O)O)cs4)c(CCC4CC4)c3Cc3ccc(S(N)(=O)=O)c(F)c3)c2)s1 [Compound 235, 2-(5-(2-cyclopropylethyl)-4-(3-fluoro-4-sulfamoylbenzyl)-3-(3-((2-methylthiazol-5-yl)ethynyl)phenyl)-1H-pyrazol-1-yl)thiazole-4-carboxylic acid] | – | < 100

Further lines, results first:

IC50 [1] [µM] | IC50 [2] [nM] | Compound
< 1 | < 100 | NS(=O)(=O)c1ccc(Cc2c(-c3cccc(C#Cc4ccc(Cl)s4)c3)nn(-c3nc(C(=O)O)cs3)c2CC2CC2)cc1F [Compound 118, 2-(3-(3-((5-chlorothiophen-2-yl)ethynyl)phenyl)-5-(cyclopropylmethyl)-4-(3-fluoro-4-sulfamoylbenzyl)-1H-pyrazol-1-yl)thiazole-4-carboxylic acid]
< 1 | – | CCC#Cc1cc(-c2nn(-c3nc(C(=O)O)cs3)c(CC3CC3)c2Cc2ccc([S+](N)(=O)[O-])c(F)c2)ccc1F [Compound 109, 2-(3-(3-(but-1-yn-1-yl)-4-fluorophenyl)-5-(cyclopropylmethyl)-4-(3-fluoro-4-sulfamoylbenzyl)-1H-pyrazol-1-yl)thiazole-4-carboxylic acid]
– | < 100 | NS(=O)(=O)c1ccc(Cc2c(-c3cccc(-c4nc5ccccc5[nH]4)c3)nn(-c3nc(C(=O)O)cs3)c2CC2CC2)cc1F [Compound 189, 2-(3-(3-(1H-benzo[d]imidazol-2-yl)phenyl)-5-(cyclopropylmethyl)-4-(3-fluoro-4-sulfamoylbenzyl)-1H-pyrazol-1-yl)thiazole-4-carboxylic acid]
– | 1000 to 57000 | Cc1ccc(C#Cc2cccc(-c3nn(-c4nc(B(O)O)cs4)c(CC4CC4)c3Cc3ccc(S(N)(=O)=O)c(F)c3)c2)s1 [Compound 135, (2-(5-(cyclopropylmethyl)-4-(3-fluoro-4-sulfamoylbenzyl)-3-(3-((5-methylthiophen-2-yl)ethynyl)phenyl)-1H-pyrazol-1-yl)thiazol-4-yl)boronic acid]
– | < 100 | N[S+](=O)([O-])c1ccc(Cc2c(-c3ccc(F)c(C(=O)N4CCCC4)c3)nn(-c3nc(C(=O)O)cs3)c2CC2CC2)cc1F [Compound 154]
– | < 100 | Cc1nc(C#Cc2cccc(-c3nn(-c4nc(C(=O)O)cs4)c(CC4CC4)c3Cc3ccc(S(N)(=O)=O)c(F)c3)c2)cs1 [Compound 236, 2-(5-(cyclopropylmethyl)-4-(3-fluoro-4-sulfamoylbenzyl)-3-(3-((2-methylthiazol-4-yl)ethynyl)phenyl)-1H-pyrazol-1-yl)thiazole-4-carboxylic acid]
– | 100 to 1000 | Cc1ccc(-c2ccc(-c3cc(-c4nn(-c5nc(C(=O)O)cs5)c(CC5CC5)c4Cc4ccc(S(N)(=O)=O)c(F)c4)ccc3F)cc2)s1 [Compound 209, 2-(5-(cyclopropylmethyl)-3-(6-fluoro-4′-(5-methylthiophen-2-yl)-[1,1′-biphenyl]-3-yl)-4-(3-fluoro-4-sulfamoylbenzyl)-1H-pyrazol-1-yl)thiazole-4-carboxylic acid]
– | 1000 to 57000 | Cc1ccc(C#Cc2cccc(-c3nn(-c4nc(C(=O)NS(C)(=O)=O)cs4)c(CC4CC4)c3Cc3ccc(S(N)(=O)=O)c(F)c3)c2)s1 [Compound 180, 2-(5-(cyclopropylmethyl)-4-(3-fluoro-4-sulfamoylbenzyl)-3-(3-((5-methylthiophen-2-yl)ethynyl)phenyl)-1H-pyrazol-1-yl)-N-(methylsulfonyl)thiazole-4-carboxamide]
– | < 100 | Cc1ccc(C#Cc2cccc(-c3nn(-c4nc(C(=O)O)co4)c(CC4CC4)c3Cc3ccc(S(N)(=O)=O)c(F)c3)c2)s1 [Compound 247, 2-(5-(cyclopropylmethyl)-4-(3-fluoro-4-sulfamoylbenzyl)-3-(3-((5-methylthiophen-2-yl)ethynyl)phenyl)-1H-pyrazol-1-yl)oxazole-4-carboxylic acid]
